≈ marks a conversion by molar mass, not a printed value.
Tests used:
Assay type in all cases: functional
[1] = system: BXPC-3; assay: Growth inhibition of human BXPC3 cells
[2] = system: MCF7; assay: Growth inhibition of human MCF7 cells
[3] = Growth inhibition of human SF269 cells
[4] = system: NCI-H460; assay: Growth inhibition of human NCI-H460 cells
[5] = system: KM-20L2; assay: Growth inhibition of human KM20L2 cells
[6] = system: DU-145; assay: Growth inhibition of human DU145 cells
[7] = system: P388; assay: Growth inhibition of mouse P388 cells; conditions: for EC50: read-out: ED50 (the source's name)

Row | SMILES | GI50 [7] [µg/mL] | GI [1] [µg/mL] | GI50 [2] [µg/mL] | GI50 [3] [µg/mL] | GI50 [4] [µg/mL] | GI50 [5] [µg/mL] | GI50 [6] [µg/mL] | EC50 [7] [µg/mL]
1 | O=C1N[C@H]2[C@H](O)[C@H](O)[C@@H](O)C[C@@H]2c2cc3c(cc21)OCO3 | – | 0.036 | 0.03 (≈ 0.102 µM) | 0.03 (≈ 0.102 µM) | 0.037 (≈ 0.126 µM) | 0.028 (≈ 0.0955 µM) | 0.025 (≈ 0.0852 µM) | < 0.01
2 | O=C1N[C@@H]2C(=C[C@H](O)[C@@H](O)[C@H]2O)c2cc3c(cc21)OCO3 | – | 0.12 | 0.093 (≈ 0.319 µM) | 0.047 (≈ 0.161 µM) | 0.11 (≈ 0.378 µM) | 0.15 (≈ 0.515 µM) | 0.062 (≈ 0.213 µM) | < 0.01
3 | Cl.O[C@@H]1[C@H](O)[C@@H](O)C[C@@H]2c3cc4c(cc3CN[C@@H]12)OCO4 | – | 1.4 | 1.7 | 1.6 | 0.78 | 1.7 | 0.71 | 3.3
4 | O[C@@H]1[C@H](O)[C@@H](O)C[C@@H]2c3cc4c(cc3CN[C@@H]12)OCO4 | – | >10 | > 10 | > 10 | 7.5 (≈ 26.9 µM) | > 10 | 4.4 (≈ 15.8 µM) | 0.43 (≈ 1.54 µM)
5 | Cl.O[C@@H]1[C@H](O)[C@@H](O)C=C2c3cc4c(cc3CN[C@H]21)OCO4 | – | 4.4 | 3.4 | 2.9 | 3.4 | > 10 | 3.2 | 7.1
6 | CC(=O)O[C@H]1[C@@H]2NC(=O)c3cc4c(cc3[C@H]2C[C@H](OC(C)=O)[C@H]1OC(C)=O)OCO4 | – | 0.69 | 0.46 (≈ 1.1 µM) | 0.3 (≈ 0.715 µM) | 1.5 (≈ 3.58 µM) | 0.66 (≈ 1.57 µM) | 0.46 (≈ 1.1 µM) | 1.61 (≈ 3.84 µM)
7 | CC1(C)O[C@@H]2[C@H](O1)[C@@H](O)C=C1c3cc4c(cc3CN[C@H]12)OCO4 | > 10 | – | – | – | – | – | – | –
8 | CC1(C)O[C@H]2[C@@H]3NCc4cc5c(cc4[C@H]3C[C@H](O[Si](C)(C)C(C)(C)C)[C@H]2O1)OCO5 | > 10 | – | – | – | – | – | – | –
9 | CC1(C)O[C@H]2[C@@H]3NC(=O)c4cc5c(cc4[C@H]3C[C@H](O[Si](C)(C)C(C)(C)C)[C@H]2O1)OCO5 | > 10 | – | – | – | – | – | – | –
10 | CC(=O)O[C@H]1C=C2c3cc4c(cc3C(=O)N[C@H]2[C@H](O)[C@@H]1O)OCO4 | – | 0.26 | 0.24 (≈ 0.72 µM) | 0.19 (≈ 0.57 µM) | 0.32 (≈ 0.96 µM) | 0.18 (≈ 0.54 µM) | 0.26 (≈ 0.78 µM) | < 0.01
11 | CC1(C)O[C@H]2[C@@H]3NCc4cc5c(cc4[C@H]3C[C@H](O)[C@H]2O1)OCO5 | > 10 | – | – | – | – | – | – | –
12 | CC1(C)O[C@@H]2[C@H](O1)[C@@H](O[Si](C)(C)C(C)(C)C)C=C1c3cc4c(cc3CN[C@H]12)OCO4 | > 10 | – | – | – | – | – | – | –
13 | CC(=O)O[C@@H]1[C@H](OC(C)=O)[C@@H](OC(C)=O)C=C2c3cc4c(cc3C(=O)N[C@H]21)OCO4 [LYCORICIDINE TRIACETATE] | – | 0.2 | 0.59 | 0.15 | 1.2 | 0.18 | 0.48 | 0.158
14 | O=C1N[C@@H]2C(=C[C@H](O)[C@@H](O)[C@H]2O)c2cc3c(c(O)c21)OCO3 [NARCICLASINE] | – | 0.026 | 0.019 (≈ 0.0618 µM) | 0.021 (≈ 0.0683 µM) | 0.032 (≈ 0.104 µM) | 0.21 (≈ 0.683 µM) | 0.011 (≈ 0.0358 µM) | 0.002 (≈ 0.00651 µM)
15 | O=C1N[C@H]2[C@H](O)[C@H](O)[C@@H](O)[C@H](O)[C@@H]2c2cc3c(c(O)c21)OCO3 [PANCRATISTATIN] | – | 0.028 | 0.032 (≈ 0.0984 µM) | 0.017 (≈ 0.0523 µM) | 0.048 (≈ 0.148 µM) | 0.026 (≈ 0.0799 µM) | 0.016 (≈ 0.0492 µM) | 0.039 (≈ 0.12 µM)

More lines, main results first:

Row | GI50 [7] [µg/mL] | SMILES | GI [1] [µg/mL] | GI50 [2] [µg/mL] | GI50 [3] [µg/mL] | GI50 [4] [µg/mL] | GI50 [5] [µg/mL] | GI50 [6] [µg/mL] | EC50 [7] [µg/mL]
16 | > 10 | CC1(C)O[C@@H]2[C@H](O1)[C@@H](O)C=C1c3cc4c(cc3C(=O)N[C@H]12)OCO4 | – | – | – | – | – | – | –
17 | > 10 | CC1(C)O[C@@H]2[C@H](O1)[C@@H](O[Si](C)(C)C(C)(C)C)C=C1c3cc4c(cc3C(=O)N[C@H]12)OCO4 | – | – | – | – | – | – | –
18 | > 10 | CC1(C)O[C@H]2[C@@H]3NC(=O)c4cc5c(cc4[C@H]3C[C@H](O)[C@H]2O1)OCO5 | – | – | – | – | – | – | –
19 | > 10 | CC(=O)O[C@H]1C=C2c3cc4c(cc3C(=O)N[C@H]2[C@@H]2OC(C)(C)O[C@@H]21)OCO4 | – | – | – | – | – | – | –

— ChEMBL document CHEMBL1157215, “Isolation and structural modification of 7-deoxynarciclasine and 7-deoxy-trans-dihydronarciclasine” (2006)
